Measurements: US20240270724A1, “GALECTIN-3 INHIBITING C-GLYCOSIDES” (GLYCOMIMETICS, INC., priority 2021, published 2024)

Tests used:
galectin-3 = molecular target: T1, galectin-3 (Homo sapiens, UniProt P17931); experiment: Galectin-3 activity ELISA assay: inhibition of galectin-3 binding to immobilized Galβ1-3GlcNAc polymer; details: inhibition of galectin-3 binding to Galβ1-3GlcNAc polymer, average (± standard deviation) where assayed more than once
T1 construct: purchased IBL IBATGP0414
Excerpt: An inhibition assay may be used to screen for antagonists of galectin-3. For example, an assay may be performed to characterize the capability of a compound described herein to inhibit interaction of galectin-3 with a Galβ1-3GlcNAc carbohydrate structure. The inhibition assay may be a competitive binding assay, which allows the determination of IC50 values. By way of example, a Galβ1-3GlcNAc polymer may be immobilized onto a matrix; a composition may be added to reduce nonspecific binding; the immobilized Galβ1-3GlcNAc polymer may be contacted with the candidate compound in the presence of galectin-3 group under conditions and for a time sufficient to permit galectin-3 to bind to the immobilized Galβ1-3GlcNAc polymer; the immobilized Galβ1-3GlcNAc polymer may be washed; and the amount of galectin-3 bound to the immobilized Galβ1-3GlcNAc polymer may be detected. Variations of such steps can be readily and routinely accomplished by a person of ordinary skill in the art.
Galectin-3 antagonists were evaluated for their ability to inhibit binding of galectin-3 to a Galβ1-3GlcNAc carbohydrate structure. The detailed protocol was as follows. A 1 μg/mL suspension of a Galβ1-3GlcNAcβ1-3Galβ1-4GlcNAcβ-PAA-biotin polymer (Glycotech, catalog number 01-096) was prepared. A 100 μL aliquot of the polymer was added to the wells of a 96-well streptavidin-coated plate (R&D Systems, catalog number CP004). A 100 μL aliquot of 1× Tris Buffered Saline (TBS, Sigma, catalog number T5912-10X) was added to control wells. The polymer was allowed to bind to the streptavidin-coated wells for 1.5 hours at room temperature. The contents of the wells were discarded, and 200 μL of 1×TBS containing 1% bovine serum albumin (BSA) was added to each well as a blocking reagent and the plate was kept at room temperature for 30 minutes. The wells were washed three times with 1×TBS containing 0.1% BSA. A serial dilution of test compounds was prepared in a separate V-bottom plate (Corning, catalog number 3897). A 75 μL aliquot of the highest concentration of the compound to be tested was added to the first well in a column of the V-bottom plate, then 15 μL were serially transferred into 60 μL 1×TBS through the remaining wells in the column to generate a 1 to 5 serial dilution. A 60 μL aliquot of 2 μg/mL galectin-3 (IBL, catalog number IBATGP0414) was added to each well in the V-bottom plate. A 100 μL aliquot of the galectin-3 test compound mixture was transferred from the V-bottom plate into the assay plate containing the Galβ1-3GlcNAc polymer. Four sets of control wells in the assay plate were prepared in duplicate containing 1) both Galβ1-3GlcNAc polymer and galectin-3, 2) neither the polymer nor galectin-3, 3) galectin-3 only, no polymer, or 4) polymer only, no galectin-3. The plate was gently rocked for 1.5 hours at room temperature. The wells were washed four times with TBS/0.1% BSA. A 100 μL aliquot of anti-galectin-3 antibody conjugated to horse radish peroxidase (R&D Systems, from DGAL30 kit) was added to each well, and the plate was kept at room temperature for 1 hour. The wells were washed four times with TBS/0.1% BSA. A 100 μL aliquot of TMB substrate solution was added to each well. The TMB substrate solution was prepared by making a 1:1 mixture of TMB Peroxidase Substrate (KPL, catalog number 5120-0048) and Peroxidase Substrate Solution B (KPL, catalog number 5120-0037). The plate was kept at room temperature for 10 to 20 minutes. The color development was stopped by adding 100 uL 10% phosphoric acid (RICCA Chemical Co., catalog number 5850-16). The absorbance at 450 nm (A450) was measured using a FlexStation 3 plate reader (Molecular Devices). Plots of A450 versus test compound concentration and IC50 determinations were made using GraphPad Prism 6. The number of assays run (n) for each compound is recorded in the following table.

[1] = molecular target: T2, carbohydrate recognition domain of human galectin-3 (Galectin-3-CRD) (Homo sapiens, UniProt P17931); experiment: Galectin-3 activity microscale thermophoresis assay; type: binding; details: label-free MST, 20 nM galectin-3-CRD; average of all assays (± standard deviation), each assay in triplicate
T2 construct: The carbohydrate recognition domain of human galectin-3 (Servesto Galectin-3-CRD) was diluted; purchased Servesto
T2 sequence (P17931 118-248 limits assumed): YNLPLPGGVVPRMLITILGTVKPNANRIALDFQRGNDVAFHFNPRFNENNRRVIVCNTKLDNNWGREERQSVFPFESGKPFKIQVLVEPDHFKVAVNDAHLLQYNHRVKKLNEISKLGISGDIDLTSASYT
Experimental: The carbohydrate recognition domain of human galectin-3 (Servesto Galectin-3-CRD) was diluted with PBS+0.1% F127 to 40 nM. Separately, a 40 uM stock of Compound 45 in DMSO was diluted down to 4 uM in PBS+0.1% F127 and serially diluted in sixteen steps using a dilution factor of 1 to 2 in 10% DMSO+PBS+0.1% F127. To each sample in the serial dilution of Compound 45, 10 ul of 40 nM Galectin-3-CRD was added, yielding final concentrations of 20 nM galectin-3-CRD and 5% DMSO+PBS+0.1% F127. NT.LabelFree Zero background Standard Treated Capillaries were filled with the prepared solutions then loaded into the Monolith NT Label-Free MST instrument. The reaction was measured with 100% excitation power of LED and medium (40%) MST power. Binding curves and Kd values were generated using MO affinity analysis. Each assay was run in triplicate. Some compounds were subjected to more than one assay run in triplicate.

T1 sequence (P17931 whole entry): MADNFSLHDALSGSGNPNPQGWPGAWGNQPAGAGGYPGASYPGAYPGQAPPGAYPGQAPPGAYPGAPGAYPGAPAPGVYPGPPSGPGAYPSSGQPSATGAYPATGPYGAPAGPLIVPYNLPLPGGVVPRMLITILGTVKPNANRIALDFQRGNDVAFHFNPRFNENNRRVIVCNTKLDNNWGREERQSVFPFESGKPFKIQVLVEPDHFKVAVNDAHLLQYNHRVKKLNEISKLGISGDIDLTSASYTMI

## [2H]C([2H])([2H])OC1C(n2cc(-c3cc(F)c(F)c(F)c3)nn2)[C@@H](O)C(CO)O[C@H]1[C@H](OCc1ccc(Br)cc1)C(=O)NC1(C)CC1 (stereo partly drawn) [Compound 50]
galectin-3
  IC50: 201 nM
[1]
  Kd: 10 nM

## COC1C(n2cc(-c3cc(F)c(F)c(F)c3)nn2)[C@@H](O)C(CO)O[C@H]1[C@H](OCc1ccc(Br)cc1)C(=O)OC(C)C (stereo partly drawn) [Compound 43]
galectin-3
  IC50: 103 nM
[1]
  Kd: 12 nM

## [2H]C([2H])([2H])OC1C(n2cc(-c3cc(F)c(F)c(F)c3)nn2)[C@@H](O)C(CO)O[C@H]1[C@H](OCc1ccc(Br)cc1)C(=O)NC1CCC1 (stereo partly drawn) [Compound 67]
galectin-3
  IC50: 153 nM
[1]
  Kd: 2.2 nM

## COC1C(n2cc(-c3cc(F)c(F)c(F)c3)nn2)[C@@H](O)C(CO)O[C@H]1[C@H](OCc1ccc(Cl)cc1)C(=O)NC(C)C (stereo partly drawn) [Compound 89, reference compound]
galectin-3
  IC50: 427 nM
[1]
  Kd: 70 nM

## [2H]C([2H])([2H])OC1C(n2cc(-c3cc(F)c(F)c(F)c3)nn2)[C@@H](O)C(CO)O[C@H]1[C@H](OCc1ccc(Br)cc1)C(=O)NC1CC1 (stereo partly drawn) [Compound 47]
galectin-3
  IC50: 408 nM
[1]
  Kd: 11 nM

## COCCCNC(=O)[C@@H](OCc1ccc(Br)cc1)[C@@H]1OC(CO)[C@H](O)C(n2cc(-c3cc(F)c(F)c(F)c3)nn2)C1OC (stereo partly drawn) [Compound 20]
galectin-3
  IC50: 265 nM
[1]
  Kd: 36 nM

## COC1C(n2cc(-c3cc(F)c(F)c(F)c3)nn2)[C@@H](O)C(CO)O[C@H]1[C@H](OCc1ccc(Br)cc1)C(=O)O (stereo partly drawn) [Compound 76]
galectin-3
  IC50: 470 nM
[1]
  Kd: 31 nM

## COC1C(n2cc(-c3cc(F)c(F)c(F)c3)nn2)[C@@H](O)C(CO)O[C@H]1[C@H](OCc1ccc(Cl)cc1)C(=O)N(C)C (stereo partly drawn) [Compound 83, reference compound]
galectin-3
  IC50: 2910 nM
[1]
  Kd: 570 nM

## CC(C)NC(=O)[C@@H](OCc1ccc(Br)cc1)[C@@H]1OC(CO)[C@H](O)C(n2cc(-c3cc(F)c(F)c(F)c3)nn2)C1O (stereo partly drawn) [Compound 44]
galectin-3
  IC50: 291 nM
[1]
  Kd: 12 nM

## COC1C(n2cc(-c3cc(F)c(F)c(F)c3)nn2)[C@@H](O)C(CO)O[C@H]1[C@H](OCc1ccc(Br)cc1)C(=O)N[C@@H](C)CF (stereo partly drawn) [Compound 71]
galectin-3
  IC50: 526 nM
[1]
  Kd: 9 nM

## COC1C(n2cc(-c3cc(F)c(F)c(F)c3)nn2)[C@@H](O)C(CO)O[C@H]1[C@H](OCc1ccc(Br)cc1)C(=O)N[C@@H](C)C(F)(F)F (stereo partly drawn) [Compound 73]
galectin-3
  IC50: 182 nM
[1]
  Kd: 8 nM

## COCCCNC(=O)[C@@H](OCc1ccc(Br)cc1)[C@@H]1OC(CO)[C@H](O)C(n2cc(-c3cc(F)c(F)c(F)c3)nn2)C1O (stereo partly drawn) [Compound 36]
galectin-3
  IC50: 204 nM
[1]
  Kd: 14 nM

## CNC(=O)[C@@H](OCc1ccc(Cl)cc1)[C@@H]1OC(CO)[C@H](O)C(n2cc(-c3cc(F)c(F)c(F)c3)nn2)C1OC (stereo partly drawn) [Compound 84, reference compound]
galectin-3
  IC50: 386 nM
[1]
  Kd: 18 nM

## [2H]C([2H])([2H])OC1C(n2cc(-c3cc(F)c(F)c(F)c3)nn2)[C@@H](O)C(CO)O[C@H]1[C@H](OCc1ccc(Br)cc1)C(=O)NC(C)(C)CO (stereo partly drawn) [Compound 74]
galectin-3
  IC50: 216 nM
[1]
  Kd: 20 nM

## [2H]C([2H])([2H])OC1C(n2cc(-c3cc(F)c(F)c(F)c3)nn2)[C@@H](O)C(CO)O[C@H]1[C@H](OCc1ccc(Br)cc1)C(=O)NC1CC(F)(F)C1 (stereo partly drawn) [Compound 66]
galectin-3
  IC50: 143 nM
[1]
  Kd: 3.6 nM

## [2H]C([2H])([2H])OC1C(n2cc(-c3cc(F)c(F)c(F)c3)nn2)[C@@H](O)C(CO)O[C@H]1[C@H](OCc1ccc(Br)cc1)C(=O)NC1(C(F)(F)F)CC1 (stereo partly drawn) [Compound 51]
galectin-3
  IC50: 702 nM
[1]
  Kd: 17 nM

## COC1C(n2cc(-c3cc(F)c(F)c(F)c3)nn2)[C@@H](O)C(CO)O[C@H]1[C@H](OCc1ccc(Br)cc1)C(=O)NC(C)C (stereo partly drawn) [Compound 23]
galectin-3
  IC50: 271 nM
[1]
  Kd: 1.7 nM

## COC1C(n2cc(-c3cc(F)c(F)c(F)c3)nn2)[C@@H](O)C(CO)O[C@H]1[C@H](OCc1ccc(Br)cc1)C(=O)NC1CC1 (stereo partly drawn) [Compound 49]
galectin-3
  IC50: 116 nM
[1]
  Kd: 18 nM
